Measurements published in patent publication US5128330A, “Oxazinone substituted phosphines” (Biofor, Ltd., priority 1991, dated 1992).

Tested on: carrageenan-induced hind paw edema
Assay: Acute antiinflammatory activity, carrageenan-induced paw edema test
Type: in vivo, Male Sprague-Dawley rats
Conditions: dosed 1 h before carrageenan, paw volume 3 h after carrageenan, rats
Procedure: Anti-Inflammatory: This activity was evaluated using a modification of the carrageenan-induced paw edema test described by C. A. Winter et al in Proc. Soc. […] This assay measures the ability of the test compound to antagonize local edema, a characteristic of the inflammatory response.
Acute antiinflammatory activity was evaluated using the carrageenan-inducedpaw edema test described by C. A. Winter, et al in Proc. Soc.
Male Sprague-Dawley rats were divided into groups of six rats each. […] One hour after dosing with the test compounds, the left hind paws were injected with a 0.1 ml carrageenan solution (1% in distilled water, sterilized) intraplantarly. Three hours after carrageenan injection the volume of the injected paws was redetermined. Group means were also determined and the drug effect was calculated as percent inhibition of the hind paw edema according to the following equation: [formula]

SMILES	% Inhibition (percent inhibition of the hind paw edema) (100 mg (so in the source)) [%]	% Inhibition (percent inhibition of the hind paw edema) (100 mg/kg) [%]
CC(=O)Oc1ccccc1C(=O)O [Aspirin]	50	–
CN1OCCC([P+](c2ccccc2)(c2ccccc2)c2ccccc2)C1=O (centres unmarked) [Example 1, (dihydro-N-methyl-2H-1,2-oxazin-3(4H)-oxo-4-yl)triphenylphosphonium bromide]	–	62
